Reference: patent publication US20220243211A1, “PEPTIDE NUCLEIC ACID COMPOSITIONS WITH MODIFIED HOOGSTEEN BINDING SEGMENTS AND METHODS OF USE THEREOF” (Yale University, priority 2019, published 2022)
[PNA-N] = peptide nucleic acid monomer (N: the base)

Experiments:
[1] = Zeta potential and hydrodynamic diameter of formulated NPs by dynamic light scattering; assay type: physicochemical; conditions: NPs containing PNA/donor DNA, PBS buffer, n = 3; for Z Av Diameter: dynamic light scattering
Description: Blank NPs containing no PNA and a mismatch donor DNA as a control were prepared as a control. The mismatched donor DNA was purposely added into blank NPs because addition of donor DNA helps to produce a similar surface charge on the control NPs as on the test NPs encapsulated with PNA/donor DNA combinations. […] All NP in the diameters were in the range of 200-350 nm, as measured by dynamic light scattering (Table 1), consistent with previous measurements (McNeer, et al., Nat Commun 6, 6952 (2015), Fields, et al., Adv Healthc Mater 4, 361-366 (2015), Fields, et al., J Control Release 164, 41-48 (2012)). PNA/DNA-loaded NPs were cationic (Fields, et al., Adv Healthc Mater 4, 361-366 (2015), Fields, et al., J Control Release 164, 41-48 (2012)) for PBAE/PLGA/MPG NPs (Table 1).

[2] = system: CFTR function in the nasal epithelium; assay: Nasal potential difference (NPD) in CF mice after intranasal NPs; assay type: in vivo, mouse; conditions: F508del CF mice, intranasal PBAE/PLGA/MPG NPs with PNA/donor DNA
Description: FIG. 4 is a dot plot showing functional correction of CFTR with modified NPs in vivo. Mice were treated by intranasal administration with NPs. Nasal potential difference measurements were evaluated before and after NP treatments. The response to a 0Cl+amiloride+forksolin perfusate after NP treatment was compared to the response prior to treatment. Pre- and post-treatment changes in NPD were compared using paired t tests for each mouse. Each mouse is represented with an individual data point; in addition, the mean is shown with a horizontal line, surround by error bars showing the standard error of the mean. In the last panel, nasal potential difference changes in wild type mice are shown for comparison. […]
To determine if gamma tcPNAs were more efficient editing agents than classic PNA in vivo, CF mice were treated intranasally with PBAE/PLGA/MPG NPs containing mCF-PNA/DNA or γmCF-PNA-h/DNA on days 1, 3, 6, and 9. Subsequently, CF mice were assessed for CFTR function in the nasal epithelium by measuring the nasal potential difference (NPD), a non-invasive assay used to detect cAMP-stimulated chloride transport in vivo. […] NPD is assessed in all mice prior to treatment with NPs and reassessed after treatment such that alterations in this measure can be used as a surrogate of restored CFTR function.

[3] = mouse, in vivo
Description: To collect the lungs for histopathology, a midline incision from sternum to diaphragm was performed and, to remove blood from the pulmonary circulation, PBS+heparin was perfused via the right ventricle using a 20 g needle. Lungs were inflated with 0.5% low melt agarose at constant pressure, then removed from the chest and placed in fixative. Paraffin embedded tissues were stained with hemotoxylin and eosin stain for imaging.
To investigate whether NPs could effectively deliver the gene editing reagents to the lung TAMRA-conjugated mouse specific PNA (γmCF PNA-h) and mouse donor DNA into PBAE/PLGA/MPG NPs were formulated. After intranasal administration of γmCF PNA-h/DNA NPs into CF mice, the lungs were harvested and PNA uptake was assessed by fluorescence microscopy.

Substance | Zeta Potential [1] [mV] | Z Av Diameter [1] [nm] | treated mice showing response to cyclic AMP stimulation (cyclic AMP activated Cl− conductance) in NPD [2] [%] | histology of nasal epithelia / respiratory tract [3]
H-KKK-JTTTTJJJ-OOO-CCCTTTTCAAGGTGAGTAG-KKK-NH2 [mCF PNA] (NTTTTNNNCCCTTTTCAAGGTGAGTAG; listed as DNA, chemistry not fully specified) | 46.17 | 317.8 | 50 | 
H-KKK-JTTTTJJJ-OOO-CCCTTTTCAAGGTGAGTAG-KKK-NH2 [γmCF PNA-h] (NTTTTNNNCCCTTTTCAAGGTGAGTAG; all [PNA-N], the base at N not given here; lysine tripeptides at both ends, OOO linker, some gamma-modified PNA monomers, further chemistry not fully specified) [tail clamp PNA targeting mouse CFTR gene with MPγ monomers in Hoogsteen domain] | 36.17 | 349.1 | 79 | No significant differences in the histology of the nasal epithelia
